From patent publication US20240315989A1 (priority 2021, published 2024)
Several values for one entry are separate records, joined by “and”; a condition that tells them apart may be missing. Equal entries are not always repeated. Where two headings read alike, the source gives them in different places.

Columns and labels:
[1] = test system: COVID-19 (SARS-CoV-2 infection)
[2] = test system: α1-, α2-, β-adrenergic, muscarinic, dopamine D2, histamine H1, GABA-benzodiazepine, opiate, 5-HT1, or 5-HT2 receptors; conditions: cited from earlier work
[3] = test system: COVID-19 (SARS-CoV-2 infection); conditions: cited from earlier work
[4] = test system: experimental autoimmune encephalomyelitis (EAE); conditions: cited from earlier work
[5] = cited from earlier work
[6] = cited from earlier work; remark: listed apart in the source
COVID-19 = conditions: cited from earlier work

For `COCCCC/C(=N\OCCN)c1ccc(C(F)(F)F)cc1.O=C(O)/C=C\C(=O)O` [fluvoxamine, 5-methoxy-4′-(trifluoromethyl)valerophenone-(E)-O-(2-aminoethyl)oxime maleate (1:1)], the “Maximum dose tolerated over 15 days 200 mg/day (100 twice daily), %” value (STOP COVID trial dosing) was “(45%)”, the “Maximum dose tolerated over 15 days 200 mg/day (100 twice daily), Number” value (STOP COVID trial dosing) was 36 and the “Maximum dose tolerated over 15 days 300 mg/day (100 three times daily), %” value (STOP COVID trial dosing) was “(50%)”. The “Maximum dose tolerated over 15 days 300 mg/day (100 three times daily), Number” value (STOP COVID trial dosing) was 40, the “Not able to reach 200 mg/day, %” value (STOP COVID trial dosing) was “(5%)” and the “Not able to reach 200 mg/day, Number” value (STOP COVID trial dosing) was 4. The “Acute on chronic respiratory failure, %” value (StopCovid, N = 80) was “(0%)”, the “Acute on chronic respiratory failure, number” value (StopCovid, N = 80) was 0 and the “Bacterial infection, %” value (StopCovid, N = 80) was “(1.3%)”. For the same compound, the “Bacterial infection, number” value (StopCovid, N = 80) was 1, the “Chest pain or tightness, %” value (StopCovid, N = 80) was “(0%)” and the “Chest pain or tightness, number” value (StopCovid, N = 80) was 0. The “Fever, %” value (StopCovid, N = 80) was “(0%)”, the “Fever, number” value (StopCovid, N = 80) was 0 and the “Flank pain, %” value (StopCovid, N = 80) was “(0%)”. For the same compound, the “Flank pain, number” value (StopCovid, N = 80) was 0, the “Gastroenteritis, nausea, or vomiting, %” value (StopCovid, N = 80) was “(1.3%)” and the “Gastroenteritis, nausea, or vomiting, number” value (StopCovid, N = 80) was 1. For the same compound, the “Headache or head pain, %” value (StopCovid, N = 80) was “(2.5%)”, the “Headache or head pain, number” value (StopCovid, N = 80) was 2 and the “Number of patients with any serious adverse event” value (StopCovid, N = 80) was 1. The “Number of patients with any serious adverse event, %” value (StopCovid, N = 80) was “(1.3%)”, the “Number with any adverse event” value (StopCovid, N = 80) was 12 and the “Number with any adverse event, %” value (StopCovid, N = 80) was “(15%)”. The “Pneumonia, %” value (StopCovid, N = 80) was “(3.8%)”, the “Pneumonia, number” value (StopCovid, N = 80) was 3 and the “Shortness of breath, %” value (StopCovid, N = 80) was “(2.5%)”. For the same compound, the “Shortness of breath, number” value (StopCovid, N = 80) was 2, the “Teeth chattering, %” value (StopCovid, N = 80) was “(1.3%)” and the “Teeth chattering, number” value (StopCovid, N = 80) was 1. For the same compound, the “Vasovagal syncope, %” value (StopCovid, N = 80) was “(1.3%)”, the “Vasovagal syncope, number” value (StopCovid, N = 80) was 1 and the “hypercapnia, %” value (StopCovid, N = 80) was “(0%)”. The “hypercapnia, number” value (StopCovid, N = 80) was 0, the “muscle aches, %” value (StopCovid, N = 80) was “(1.3%)” and the “muscle aches, number” value (StopCovid, N = 80) was 1. The “Acute respiratory failure, No. of adverse events (%)” value (n = 80, 15 days) was 0 No. (%), the “Bacterial infection, No. of adverse events (%)” value (n = 80, 15 days) was 1 (1.3) No. (%) and the “Chest pain or tightness, No. of adverse events (%)” value (n = 80, 15 days) was 0 No. (%). For the same compound, the “Fever, No. of adverse events (%)” value (n = 80, 15 days) was 0 No. (%), the “Flank pain, No. of adverse events (%)” value (n = 80, 15 days) was 0 No. (%) and the “Gastroenteritis, nausea, or vomiting, No. of adverse events (%)” value (n = 80, 15 days) was 1 (1.3) No. (%). The “Headache or head pain, No. of adverse events (%)” value (n = 80, 15 days) was 2 (2.5) No. (%), the “Hypercapnia, No. of adverse events (%)” value (n = 80, 15 days) was 0 No. (%) and the “Muscle aches, No. of adverse events (%)” value (n = 80, 15 days) was 1 (1.3) No. (%). For the same compound, the “Other adverse events, by No. of patients (%)” value (n = 80, 15 days) was 11 (13.8) No. (%), the “Pneumonia, No. of adverse events (%)” value (n = 80, 15 days) was 3 (3.8) No. (%) and the “Serious adverse events, by No. of patients (%)” value (n = 80, 15 days) was 1 (1.3) No. (%). For the same compound, the “Shortness of breath, No. of adverse events (%)” value (n = 80, 15 days) was 2 (2.5) No. (%), the “Teeth chattering, No. of adverse events (%)” value (n = 80, 15 days) was 1 (1.3) No. (%) and the “Vasovagal syncope, No. of adverse events (%)” value (n = 80, 15 days) was 1 (1.3) No. (%). For the same compound, the “Clinical status on 7-point scale, difference between group means vs placebo” value [1] was −0.22, the “Most severe baseline symptom change score, difference between group means vs placebo” value [1] was 0.3 and the “30-d post trial observation events, %” value ([1]; 30 days after day 15) was “(1.3) %”. The “Most severe baseline symptom change score (difference between baseline and final rating)” value ([1]; day 0 to day 15, 0-10 scale) was −5.6, the “30-d post trial observation events, absolute difference vs placebo” value ([1]; difference in proportions) was −0.1 and the “Absolute difference vs placebo, 7-point scale 0 (none)” value ([1]; difference in proportions) was 8.3. The “Absolute difference vs placebo, 7-point scale 1” value ([1]; difference in proportions) was −2.8, the “Absolute difference vs placebo, 7-point scale 3” value ([1]; difference in proportions) was −4.2 and the “Absolute difference vs placebo, 7-point scale 5” value ([1]; difference in proportions) was −1.4. The “Absolute difference vs placebo, 7-point scale any nonzero value” ([1]; difference in proportions) was −8.3, the “Clinical status on 7-point scale, mean (SD)” value ([1]; n = 80) was 0 and the “WHO scale, 0-1 = uninfected or ambulatory, %” value ([1]; n = 80) was “(100%)”. The “WHO scale, 2 = limitation of activities, %” value ([1]; n = 80) was “(0%)”, the “WHO scale, 2 = limitation of activities, No” value ([1]; n = 80) was 0 and the “WHO scale, 3 = hospitalized, no O2 needed, %” value ([1]; n = 80) was “(0%)”. For the same compound, the “WHO scale, 3 = hospitalized, no O2 needed, No” value ([1]; n = 80) was 0, the “WHO scale, 4 = hospitalized, O2 needed, %” value ([1]; n = 80) was “(0%)” and the “WHO scale, 4 = hospitalized, O2 needed, No” value ([1]; n = 80) was 0. For the same compound, the “WHO scale, 5 = non-invasive vent or high-flow O2, %” value ([1]; n = 80) was “(0%)”, the “WHO scale, 5 = non-invasive vent or high-flow O2, No” value ([1]; n = 80) was 0 and the “WHO scale, 6 = ventilator needed, %” value ([1]; n = 80) was “(0%)”. For the same compound, the “WHO scale, 6 = ventilator needed, No” value ([1]; n = 80) was 0, the “WHO scale, 7 = ventilator + additional organ support, %” value ([1]; n = 80) was “(0%)” and the “WHO scale, 7 = ventilator + additional organ support, No” value ([1]; n = 80) was 0. The “WHO scale, 8 = Death, %” value ([1]; n = 80) was “(0%)”, the “WHO scale, total participants with values >1, %” value ([1]; n = 80) was “(0%)” and the “WHO scale, total participants with values >1, No” value ([1]; n = 80) was 0. For the same compound, the “7-point scale, 1 = O2 sat <92% but no supplemental O2, %” value ([1]; n = 80, 15 days) was “(0%)”, the “7-point scale, 1 = O2 sat <92% but no supplemental O2, No” value ([1]; n = 80, 15 days) was 0 and the “7-point scale, 2 = Above + supplemental O2 needed, %” value ([1]; n = 80, 15 days) was “(0%)”. The “7-point scale, 2 = Above + supplemental O2 needed, No” value ([1]; n = 80, 15 days) was 0, the “7-point scale, 3 = Above + hospitalization needed, %” value ([1]; n = 80, 15 days) was “(0%)” and the “7-point scale, 3 = Above + hospitalization needed, No” value ([1]; n = 80, 15 days) was 0. The “7-point scale, 4 = Above + ventilator needed (<3 days), %” value ([1]; n = 80, 15 days) was “(0%)”, the “7-point scale, 4 = Above + ventilator needed (<3 days), No” value ([1]; n = 80, 15 days) was 0 and the “7-point scale, 5 = Above + ventilator needed (≥3 days), %” value ([1]; n = 80, 15 days) was “(0%)”. For the same compound, the “7-point scale, 5 = Above + ventilator needed (≥3 days), No” value ([1]; n = 80, 15 days) was 0, the “7-point scale, 6 = Death, %” value ([1]; n = 80, 15 days) was “(0%)” and the “7-point scale, total participants with values >0 (any nonzero value), No” value ([1]; n = 80, 15 days) was 0. For the same compound, the “7-point scale, total participants with values >0, %” value ([1]; n = 80, 15 days) was “(0%)”, the “30-d post trial observation events (emergency department visit, hospitalization, or both), No.” value ([1]; of 80, 30 days after day 15) was 1 and the “Affinity for α1-, α2-, β-adrenergic, muscarinic, dopamine D2, histamine H1, GABA-benzodiazepine, opiate, 5-HT1, or 5-HT2 receptors” value [2] was “negligible affinity”. For the same compound, the Incidence of hospitalization ([3]; 50 mg twice daily, 14 days) was 0%, the “Patients hospitalized, number of 65” value ([3]; 14 days) was “no patients and 0 of 65” and the “Patients hospitalized, number of 65” value ([3]; 14 days, listed as FLV) was 0/65. The “Persistent residual / ongoing symptoms at 14 days” value ([3]; Day 14) was 0%, the “Persons with persistent residual / ongoing symptoms at 14 days, number of 65” value ([3]; Day 14) was 0/65 and zero and the “Persons with persistent residual / ongoing symptoms at 14 days, number of 65” value ([3]; Day 14, listed as FLV) was 0/65. The “Severity of EAE” value ([4]; rats, also when treatment began 12 days post-induction) was “reduces the severity”, the IFN-γ serum levels ([4]; vs untreated EAE rats) was “decrease” and the IL-4 serum levels ([4]; vs untreated EAE rats) was “increase”. The “Nausea, % of patients” value ([5]; 35,368 people, 66 studies) was 15.7%, the “Another serious adverse event (suicide attempt, depression, death, accidental injury)” value ([5]; in vivo) was under 0.4% and the “Serious adverse events requiring hospitalization” value ([5]; in vivo) was 1.6%. The “Serious adverse events, % of people” value ([5]; taking the medication for a psychiatric disorder) was “approximately 2.0%”, the “volume of distribution [V/F]” value ([6]; one-compartment model) was 928 L and the “Free fraction in plasma” value ([6]; unbound to plasma proteins) was 20%. The “HR for death vs matched controls” value (COVID-19; 95% CI 0.36-0.94) was 0.58, the “Patients who died, %” value (COVID-19; ICU patients, 100 mg three times daily) was 58.8% and the “Reduced risk of death vs matched controls” value (COVID-19; in vivo) was 42%. For the same compound, the “Patients who died, No.” value (COVID-19; of 51 ICU patients, 100 mg three times daily) was 30.
